Laboratory results taken from patent US20250304620A1, “ANTIMICROBIAL PEPTIDE AND APPLICATION THEREOF” (priority 2023, published 2025).
Values after ≈ are worked out from the molar mass of the structure shown. Marks after values point to notes of the source that are not given here. Non-standard residues stand in square brackets, D forms with d. Residues, ends and D or L forms follow the SMILES beside them. d2Nal = N[C@H](Cc1ccc2ccccc2c1)C(=O)O

Legend:
[1] = system: Escherichia coli ATCC 25922; assay: Oral formulations on mice with systemic bacterial infection; format: in vivo, ICR mice; details: three times a day for 7 days; for Number of mice that died on each day after infection: day 4 / Number of mice that died on each day after infection: day 5 / Number of mice that died on each day after infection: day 6 / Number of mice that died on each day after infection: day 7 / Number of mice that died on each day after infection: day 8 / Average survival times (Days): n = 10; for Average survival times (Days): observed for 14 d; for survival time of mice infected with Escherichia coli: gavage, observed 14 d
Procedure, shortened: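 ICR mice of both sexes, 10 per group, infected i.p. with 0.2 mL E. coli ATCC 25922 at 1×10^7 CFU/mL. Compounds gavaged by body weight immediately after infection, three times daily for 7 days; deaths and survival time recorded over 14 d observation.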

[2] = system: Candida tropicalis ATCC 750; format: cell-based
Procedure, shortened: (§1)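 Susceptibility testing used the CLSI-standard microdilution method with twofold serial dilutions of the antimicrobial peptides to give MIC values, replicated 5 times in parallel.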

Enterococcus ATCC 29212 = format: cell-based
Procedure, shortened: as §1

[3] = system: Trichophyton ATCC MYA-4438; format: cell-based
Procedure, shortened: as §1

[4] = system: Escherichia coli ATCC 25922; format: cell-based
Procedure, shortened: as §1

[5] = system: Staphylococcus aureus (NRS 384); details: NRS 384, 3 h
Procedure: Trypsin (250 U/mg, pH=8.0) and AMPs (LV-1 to LV-30) were mixed in a ratio of 1:10 (w/w) and added to a reaction buffer (0.2 M sodium phosphate, 1 mM CaCl2), pH 7.5), and then incubated at 37° C. for 3 h.

[6] = system: Staphylococcus aureus (NRS 384); assay: microbe, parasite or virus in culture; format: cell-based; details: NRS 384
Procedure, shortened: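 CLSI broth microdilution with serial twofold dilutions gave MICs against S. aureus NRS 384, with 5 parallel replicates. Levofloxacin and the AMP Cbf-K16 served as positive controls.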

| SMILES | Number of mice that died on each day after infection: day 4 ([1]; 0.2 mg/kg gavage) | Number of mice that died on each day after infection: day 5 ([1]; 0.2 mg/kg gavage) | Number of mice that died on each day after infection: day 6 ([1]; 0.2 mg/kg gavage) | Number of mice that died on each day after infection: day 7 ([1]; 0.2 mg/kg gavage) | Number of mice that died on each day after infection: day 8 ([1]; 0.2 mg/kg gavage) | Average survival times (Days) ([1]; 0.2 mg/kg gavage) | Number of mice that died on each day after infection: day 4 ([1]; 1 mg/kg gavage) | Number of mice that died on each day after infection: day 5 ([1]; 1 mg/kg gavage) | Number of mice that died on each day after infection: day 6 ([1]; 1 mg/kg gavage) | Number of mice that died on each day after infection: day 7 ([1]; 1 mg/kg gavage) | Number of mice that died on each day after infection: day 8 ([1]; 1 mg/kg gavage) | Average survival times (Days) ([1]; 1 mg/kg gavage) | Number of mice that died on each day after infection: day 4 ([1]; 5 mg/kg gavage) | Number of mice that died on each day after infection: day 5 ([1]; 5 mg/kg gavage) | MIC Candida tropicalis ATCC 750 [2] | MIC Enterococcus ATCC 29212 (Enterococcus ATCC 29212) | MIC Trichophyton ATCC MYA-4438 [3] | MIC Escherichia coli ATCC 25922 [4] | Trypsin MIC [5] | MIC against Staphylococcus aureus (NRS 384) [6] | also measured |
| --- | --- | --- | --- | --- | --- | --- | --- | --- | --- | --- | --- | --- | --- | --- | --- | --- | --- | --- | --- | --- | --- |
| CC(=O)N[C@H](CCCNC(=N)N)C(=O)N[C@H](CCCCN)C(=O)N[C@H](CC(C)C)C(=O)N[C@H](CC(C)C)C(=O)N[C@H](Cc1ccc2ccccc2c1)C(=O)N[C@H](CCCCN)C(=O)N[C@H](CC(C)C)C(=O)N[C@H](CCCCN)C(=O)N[C@H](Cc1ccc2ccccc2c1)C(=O)N[C@H](CCCCN)C(=O)N[C@H](CCCNC(=N)N)C(N)=O [LV-18] (Ac-[dR][dK][dL][dL][d2Nal][dK][dL][dK][d2Nal][dK][dR]-NH2) | 0 Mouse | 1 Mouse | 2 Mouse | 1 Mouse | 0 Mouse | 10.8*** Days | 0 Mouse | 1 Mouse | 0 Mouse | 1 Mouse | 0 Mouse | 12.4**** Days | 0 Mouse | 1 Mouse | 2 µg/mL (≈ 1.24 µM) | 4 µg/mL (≈ 2.47 µM) | 16 µg/mL (≈ 9.89 µM) | 1 µg/mL (≈ 0.618 µM) | 1 µg/mL | 1 µg/mL (≈ 0.618 µM) | Number of mice that died on each day after infection: day 6 ([1]; 5 mg/kg gavage): 2 Mouse; Number of mice that died on each day after infection: day 7 ([1]; 5 mg/kg gavage): 0 Mouse; Number of mice that died on each day after infection: day 8 ([1]; 5 mg/kg gavage): 0 Mouse; Average survival times (Days) ([1]; 5 mg/kg gavage): 11.5**** Days; survival time of mice infected with Escherichia coli [1]: superior to those of the Levofloxacin group |
| CC(=O)N[C@H](CCCCN)C(=O)N[C@H](CCCCN)C(=O)N[C@H](CC(C)C)C(=O)N[C@H](CC(C)C)C(=O)N[C@H](Cc1ccc2ccccc2c1)C(=O)N[C@H](CCCNC(=N)N)C(=O)N[C@H](CC(C)C)C(=O)N[C@H](CCCCN)C(=O)N[C@H](Cc1ccc2ccccc2c1)C(=O)N[C@H](CCCNC(=N)N)C(=O)N[C@H](CCCCN)C(N)=O [LV-19] (Ac-[dK][dK][dL][dL][d2Nal][dR][dL][dK][d2Nal][dR][dK]-NH2) | 0 Mouse | 2 Mouse | 1 Mouse | 2 Mouse | 1 Mouse | 9.4** Days | 0 Mouse | 1 Mouse | 1 Mouse | 1 Mouse | 0 Mouse | 11.6**** Days | 0 Mouse | 2 Mouse | 4 µg/mL (≈ 2.47 µM) | 2 µg/mL (≈ 1.24 µM) | 8 µg/mL (≈ 4.94 µM) | 1 µg/mL (≈ 0.618 µM) | 1 µg/mL | 1 µg/mL (≈ 0.618 µM) | Number of mice that died on each day after infection: day 6 ([1]; 5 mg/kg gavage): 1 Mouse; Number of mice that died on each day after infection: day 7 ([1]; 5 mg/kg gavage): 1 Mouse; Number of mice that died on each day after infection: day 8 ([1]; 5 mg/kg gavage): 0 Mouse; Average survival times (Days) ([1]; 5 mg/kg gavage): 10.7*** Days; survival time of mice infected with Escherichia coli [1]: superior to those of the Levofloxacin group |
| CC(=O)N[C@H](CCCNC(=N)N)C(=O)N[C@H](CCCCN)C(=O)N[C@H](CC(C)C)C(=O)N[C@H](CC(C)C)C(=O)N[C@H](Cc1ccc2ccccc2c1)C(=O)N[C@H](CCCNC(=N)N)C(=O)N[C@H](CC(C)C)C(=O)N[C@H](CCCCN)C(=O)N[C@H](Cc1ccc2ccccc2c1)C(=O)N[C@H](CCCNC(=N)N)C(=O)N[C@H](CCCCN)C(N)=O [LV-20] (Ac-[dR][dK][dL][dL][d2Nal][dR][dL][dK][d2Nal][dR][dK]-NH2) | 1 Mouse | 1 Mouse | 2 Mouse | 2 Mouse | 0 Mouse | 9.1** Days | 1 Mouse | 1 Mouse | 0 Mouse | 1 Mouse | 0 Mouse | 11.4**** Days | 2 Mouse | 0 Mouse | 8 µg/mL (≈ 4.86 µM) | 4 µg/mL (≈ 2.43 µM) | 8 µg/mL (≈ 4.86 µM) | 1 µg/mL (≈ 0.607 µM) | 1 µg/mL | 1 µg/mL (≈ 0.607 µM) | Number of mice that died on each day after infection: day 6 ([1]; 5 mg/kg gavage): 2 Mouse; Number of mice that died on each day after infection: day 7 ([1]; 5 mg/kg gavage): 0 Mouse; Number of mice that died on each day after infection: day 8 ([1]; 5 mg/kg gavage): 0 Mouse; Average survival times (Days) ([1]; 5 mg/kg gavage): 10.4*** Days; survival time of mice infected with Escherichia coli [1]: superior to those of the Levofloxacin group |
| CC(=O)N[C@H](CCCNC(=N)N)C(=O)N[C@H](CCCNC(=N)N)C(=O)N[C@H](CC(C)C)C(=O)N[C@H](CC(C)C)C(=O)N[C@H](Cc1ccc2ccccc2c1)C(=O)N[C@H](CCCNC(=N)N)C(=O)N[C@H](CC(C)C)C(=O)N[C@H](CCCCN)C(=O)N[C@H](Cc1ccc2ccccc2c1)C(=O)N[C@H](CCCNC(=N)N)C(=O)N[C@H](CCCCN)C(N)=O [LV-21] (Ac-[dR][dR][dL][dL][d2Nal][dR][dL][dK][d2Nal][dR][dK]-NH2) | – | – | – | – | – | – | 1 Mouse | 2 Mouse | 1 Mouse | 0 Mouse | 1 Mouse | 9.8** Days | – | – | 8 µg/mL (≈ 4.78 µM) | 4 µg/mL (≈ 2.39 µM) | 4 µg/mL (≈ 2.39 µM) | 2 µg/mL (≈ 1.19 µM) | 1 µg/mL | 1 µg/mL (≈ 0.597 µM) | – |
| CC(=O)N[C@H](CCCNC(=N)N)C(=O)N[C@H](CCCCN)C(=O)N[C@H](CC(C)C)C(=O)N[C@H](CC(C)C)C(=O)N[C@H](Cc1ccc2ccccc2c1)C(=O)N[C@H](CCCNC(=N)N)C(=O)N[C@H](CC(C)C)C(=O)N[C@H](CCCCN)C(=O)N[C@H](Cc1ccc2ccccc2c1)C(=O)N[C@H](CCCNC(=N)N)C(=O)N[C@H](CCCNC(=N)N)C(N)=O [LV-22] (Ac-[dR][dK][dL][dL][d2Nal][dR][dL][dK][d2Nal][dR][dR]-NH2) | – | – | – | – | – | – | 0 Mouse | 2 Mouse | 1 Mouse | 1 Mouse | 2 Mouse | 9.5** Days | – | – | 8 µg/mL (≈ 4.78 µM) | 2 µg/mL (≈ 1.19 µM) | 4 µg/mL (≈ 2.39 µM) | 2 µg/mL (≈ 1.19 µM) | 1 µg/mL | 1 µg/mL (≈ 0.597 µM) | – |
| CC(=O)N[C@H](CCCCN)C(=O)N[C@H](CCCNC(=N)N)C(=O)N[C@H](CC(C)C)C(=O)N[C@H](CC(C)C)C(=O)N[C@H](Cc1ccc2ccccc2c1)C(=O)N[C@H](CCCCN)C(=O)N[C@H](CC(C)C)C(=O)N[C@H](CCCCN)C(=O)N[C@H](Cc1ccc2ccccc2c1)C(=O)N[C@H](CCCCN)C(=O)N[C@H](CCCNC(=N)N)C(N)=O [LV-23] (Ac-[dK][dR][dL][dL][d2Nal][dK][dL][dK][d2Nal][dK][dR]-NH2) | – | – | – | – | – | – | 2 Mouse | 1 Mouse | 1 Mouse | 0 Mouse | 1 Mouse | 9.7** Days | – | – | 4 µg/mL (≈ 2.47 µM) | 8 µg/mL (≈ 4.94 µM) | 16 µg/mL (≈ 9.89 µM) | 2 µg/mL (≈ 1.24 µM) | 1 µg/mL | 1 µg/mL (≈ 0.618 µM) | – |
